According to PubChem BioAssay (NCI):
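Following 48 hours of exposure in 96-well plates, responses at five concentrations were used to interpolate endpoints linearly. TGI: concentration producing complete growth inhibition.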

Columns and labels:
Assay in all cases: NCI tumour cell line growth inhibition, 48 h
CCRF-CEM leukemia = system: CCRF-CEM leukemia
BT-549 breast = system: BT-549 breast
HL-60(TB) leukemia = system: HL-60(TB) leukemia
KM12 colon = system: KM12 colon
MCF7 breast = system: MCF7 breast
HCT-15 colon = system: HCT-15 colon
TK-10 renal = system: TK-10 renal
SK-MEL-5 melanoma = system: SK-MEL-5 melanoma
SNB-19 CNS = system: SNB-19 CNS
M19-MEL melanoma = system: M19-MEL melanoma
DMS 114 small cell lung = system: DMS 114 small cell lung

| Compound | TGI (CCRF-CEM leukemia) [µM] | TGI (BT-549 breast) [µM] | TGI (HL-60(TB) leukemia) [µM] | TGI (KM12 colon) [µM] | TGI (MCF7 breast) [µM] | TGI (HCT-15 colon) [µM] | TGI (TK-10 renal) [µM] | TGI (SK-MEL-5 melanoma) [µM] | TGI (SNB-19 CNS) [µM] | TGI (M19-MEL melanoma) [µM] | TGI (DMS 114 small cell lung) [µM] |
| --- | --- | --- | --- | --- | --- | --- | --- | --- | --- | --- | --- |
| COc1ccc(NC(C(N)=O)c2cc3cc(Br)ccc3nc2Cl)cc1 (stereo not given) | > 100 | > 100 | > 100 | > 100 | > 100 | > 100 | 37.9 | > 100 | > 100 | – | – |
| COc1cc(C2C3=C(CCCC3=O)N(c3ccc(C)cc3)C3=C2C(=O)CCC3)c([N+](=O)[O-])cc1OC | > 100 | > 100 | > 100 | > 100 | > 100 | > 100 | > 100 | > 100 | > 100 | – | – |
| Cc1cc2c(cc1C)C(=O)C1(C2)Cc2cc3c(cc2C1=O)CCC3 (stereo not given) | > 100 | > 100 | > 100 | > 100 | > 100 | > 100 | > 100 | > 100 | > 100 | – | – |
| COc1cccc2cc(C(=O)Nc3ccccc3)c(=N)oc12 | > 100 | > 100 | > 100 | > 100 | > 100 | > 100 | > 100 | > 100 | > 100 | – | – |
| Nn1c(=O)[nH]c2ncn(Cc3ccccc3)c2c1=O | > 100 | > 100 | > 100 | > 100 | > 100 | > 100 | > 100 | > 100 | > 100 | – | – |
| C/C=C(\C)C(=O)O[C@@H]1CC(C)(C)CC2C3=CCC4[C@]56CC[C@](O)(OC5)C(C)(C)C6CC[C@@]4(C)C3(C)CC[C@]21C(=O)O (stereo not given in full) | > 100 | > 100 | > 100 | > 100 | > 100 | > 100 | > 100 | > 100 | > 100 | – | – |
| C=C(C)[C@H]1C2=CC(C)=C(O2)[C@@H](O)[C@H](C(=C)C)CCC2=C[C@H]1OC2=O | > 100 | > 100 | > 100 | > 100 | > 100 | > 100 | > 100 | > 100 | > 100 | – | – |
| N/C(=N\Nc1ccc(Cl)cc1)c1cnccn1 | > 100 | > 100 | > 100 | > 100 | > 100 | > 100 | > 100 | 54.6 | > 100 | – | – |
| O=[N+]([O-])c1cc(F)ccc1S(=O)(=O)c1ccccc1 | > 10 | > 10 | > 10 | > 10 | > 10 | > 10 | > 10 | > 10 | > 10 | – | – |
| CC(C)(C)NC(=O)/C(=C\Sc1ccccc1)c1ccccc1 | > 100 | > 100 | > 100 | > 100 | > 100 | > 100 | > 100 | > 100 | > 100 | – | – |
| O=C(Nc1ccccc1Cl)c1ccc([N+](=O)[O-])cc1 | > 100 | – | – | > 100 | – | > 100 | > 100 | > 100 | > 100 | > 100 | – |
| Cc1nc2c(cc1OCc1ccccc1)C(=O)C1=C(C2=O)C2OC(=O)CC2OC1(C)C (stereo not given) | 0.451 | 1.88 | 0.371 | 2 | 0.339 | 0.634 | 2.75 | 2.61 | 5.65 | – | – |
| CC1(C)C2CCC1C(=O)[C@@]1(C=CC(=O)CC1)C2 (stereo not given in full) | > 100 | > 100 | > 100 | > 100 | > 100 | > 100 | > 100 | > 100 | > 100 | – | – |
| CO/N=C(\C([O-])=N\[n+]1cnn(CC(=O)OC(C)(C)C)c1)c1csc(NC(c2ccccc2)(c2ccccc2)c2ccccc2)n1 | > 10 | > 10 | > 10 | > 10 | > 10 | > 10 | > 10 | > 10 | > 10 | – | – |
| OC12c3ccccc3C1CCCCCCCCCC21OCCO1 (stereo not given) | > 100 | – | – | > 100 | – | > 100 | > 100 | > 100 | > 100 | > 100 | > 100 |
| O=c1c2cnccc2cc2c3ccccc3ccn12 | > 100 | > 100 | > 100 | > 100 | > 100 | > 100 | > 100 | > 100 | > 100 | – | – |
| COC(=O)C(Cc1c[nH]c2ccccc12)NP(=O)(O)OCC1OC(n2cc(Br)c(=O)[nH]c2=O)CC1O (stereo not given) | > 100 | > 100 | > 100 | > 100 | > 100 | > 100 | > 100 | > 100 | > 100 | – | – |
